Measured values taken from patent US20260097056A1, “SYK ACTIVATORS AND INHIBITORS IN NEURODEGENERATIVE DISEASES” (University of Virginia Patent Foundation, priority 2022, published 2026).

Tests used:
[1] = system: bone marrow-derived macrophages (BMDMs); assay: In vitro Aβ phagocytosis assay (CypHer5E-tagged Aβ oligomers, flow cytometry); format: cell-based, mouse; conditions: SYK-deficient (Syk^fl/fl LysM^Cre) BMDMs; 10 μM Tideglusib 1 hour before 10 μM CypHer5E-tagged Aβ oligomers; read 24 hours later; vs vehicle
Experimental: Monomerization of Aβ (1-42) (641-15, California peptide) was achieved using a previously published protocol (Stine et al., 2011), using hexafluoroisopropanol (HFIP) (52517, Sigma-Aldrich). 5 mM monomeric Aβ samples were incubated for 24 hours at 4° C. in F12 media to make a 200 μM stock of oligomeric Aβ. Samples were then incubated with CypHer5E-NHS ester (PA15401, […]) diluted in 0.1 M sodium bicarbonate for 30 minutes covered and at room temperature. Following incubation, Biospin columns (7326227, Bio-Rad) were used to […] unbound dye. CypHer5E-tagged Aβ oligomers were stored at 4° C. prior to BMDM treatment. Bone marrow-derived macrophages (BMDMs) were isolated from the hindlimbs of WT and Syk^fl/fl LysM^Cre mice. Marrow-containing bones were sprayed with 70% ethanol before being placed in IMDM (Thermo Fisher, 12440-053) containing penicillin/streptomycin (P/S) (Thermo Fisher, 15140163). A 25-gauge needle was used to flush marrow from the bones using 20 ml of IMDM containing P/S. An 18-gauge needle was then used to triturate flushed bone marrow 5 times to make a single-cell suspension. Samples were spun down at 1500 rpm for 5 minutes at 4° C. […] 24 hours post Aβ treatment, BMDMs were then collected, and flow cytometry was used to assess CypHer5E fluorescence. […]

5xFAD mice = assay: Intrahippocampal injection, Aβ load in hippocampus by immunofluorescence; format: in vivo; conditions: 2 μg pustulan intrahippocampal vs vehicle-injected hemisphere of the same mouse, 7 days post injection
Experimental: Floating brains sectioned stored in PBS+0.05% sodium azide were blocked with 2% donkey serum, 1% bovine serum albumin, 0.1% triton, 0.05% tween in PBS for 1 hour at room temperature before applying the primary antibody master mix diluted in this block overnight at 4° C. Samples were stained with anti-AB (D54D2, Cell Signaling, 1:300; or 6e10, BioLegend, 1:1000) to label plaques. To study microglial morphology and numbers, sections were stained with Iba1 (ab5076, Abcam, 1:300). To further characterize microglia, we labeled with Ki67-EF660 (SoIA15, Thermo Fisher, 1:100), anti-Clec7a (R1-8g7, Invivogen, 1:30), Tmem119 (ab209064, Abcam, 1:300), and anti-CD68 (FA-11, BioRad, 1:1000). […] Quantification of images were performed using Fiji software or Imaris software (9.5.1).
5xFAD and 5xFAD Syk^ΔMG mice were anesthetized before receiving a bilateral hippocampal injection of 2 μl of vehicle or 2 μg pustulan into the right and left hemisphere of the hippocampus (at +2 mm lateral, −2 mm posterior, and −2 mm ventral relative to the intersection of the coronal and sagittal suture (bregma) at a rate of 200 nl/min) using a stereotaxic frame (51730U, Stoelting) and nanoliter injector (NL2010MC2T, World Precision Instruments). […] Images were analyzed using Fiji software and Imaris software (9.5.1).

| Molecule | Aβ phagocytosis (CypHer5E fluorescence, percent CypHer5E+ CD11b^hi F4/80^hi cells) [1] | Aβ load in injected hippocampal hemisphere (D54D2 immunofluorescence) (5xFAD mice) |
| --- | --- | --- |
| O=c1sn(-c2cccc3ccccc23)c(=O)n1Cc1ccccc1 [Tideglusib] | significantly increased Aβ phagocytosis | – |
| pustulan | – | decreased Aβ load |
